Earlier results as cited in patent US20240261236A1, “METHODS OF USING NMDA RECEPTOR ANTAGONISTS” (Seelos Therapeutics, Inc., priority 2021, published 2024).

Tests used:
[1] = Leung and Baillie 1986; cited from earlier work
NMDA receptor = conditions: binds to the NMDA receptor; Moaddel et al. 2013; cited from earlier work
[2] = 56 mg or 84 mg dose; Spravato label; cited from earlier work
[3] = 56 mg or 84 mg doses; Spravato label; cited from earlier work

SMILES | Ki (NMDA receptor) [µM] | also measured
NC1(c2ccccc2Cl)CCCC(O)C1=O (centres unmarked) [6-hydroxynorketamine] | – | anesthetic activity [1]: no anesthetic or locomotor activity
N[C@@]1(c2ccccc2Cl)CCC[C@@H](O)C1=O [(2R,6R)-hydroxynorketamine] | > 100 | –
N[C@]1(c2ccccc2Cl)CCC[C@H](O)C1=O [(2S,6S)-hydroxynorketamine] | ~21.2 | –
N[C@@]1(c2ccccc2Cl)CCCCC1=O [(R)-norketamine] | ~26.5 | –
CN[C@]1(c2ccccc2Cl)CCCCC1=O [(S)-ketamine, (S)-2-(2-chlorophenyl)-2-(methylamino)cyclohexanone] | – | subjects who developed sedation [2]: 48-61%; patients who developed dissociative changes on the CADSS assessment [3]: 61%-69%
N[C@]1(c2ccccc2Cl)CCCCC1=O [(S)-norketamine] | ~2.25 | –
NC1(c2ccccc2Cl)CCCCC1=O (centres unmarked) [norketamine] | – | anesthetic activity [1]: anesthetic activity
